According to the supplement of paper PMC11451515:

How the values were obtained:
Details in all cases: 48 h
SEM cells [1] = experiment: cell viability relative to DMSO control; higher = less cytotoxic
In short: (§1)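 Viability values are per-plate percentages of DMSO wells, with background from cell-free wells. Library compounds in DMSO were pin-dosed, in an 11-point threefold series from 47 μM to 0.79 nM, onto NOMO1 or SEM (500 cells/well) or P12-Ichikawa (1000 cells/well) leukemia cells in 1536-well plates (5 μl). Those cells had been adapted for at least four passages in each medium, and CellTiter-Glo One luminescence was read after 48 h at 37°C.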

P12-Ichikawa [2] = experiment: as above
In short: as §1

NOMO1 [3] = experiment: as above
In short: as §1

SEM cells [4] = experiment: AUC of viability dose-response curve (% viability x log10 dose units); higher = less sensitive
In short: (§2)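 Leukemia cells adapted to each medium (500 or 1000 cells/well, 1536-well plates) were exposed to library compounds in DMSO for 48 h at 37°C at 11 threefold doses, 47 μM to 0.79 nM. Luminescence by CellTiter-Glo One was normalised per plate to DMSO and cell-free wells, then fitted with a four-parameter log-logistic curve on log10 dose. Curves above full viability were scaled and quality-control failures removed before area under the curve was integrated by trapezoidal rule.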

P12-Ichikawa [5] = experiment: as above
In short: as §2

NOMO1 [6] = experiment: as above
In short: as §2

COc1ccc2cc1Oc1ccc(cc1)C[C@H]1c3cc(c(OC)cc3CCN1C)Oc1c(OC)c(OC)cc3c1[C@H](C2)N(C)CC3
cell viability [%]
Details	NOMO1 [3]	P12-Ichikawa [2]	SEM cells [1]
HPLM + 10% dialyzed FBS, 0.000781 µM	–	113	123
HPLM + 10% dialyzed FBS, 0.00234 µM	–	122	120
HPLM + 10% dialyzed FBS, 0.00702 µM	–	118	135
HPLM + 10% dialyzed FBS, 0.0211 µM	–	118	107
HPLM + 10% dialyzed FBS, 0.0632 µM	–	110	111
HPLM + 10% dialyzed FBS, 0.19 µM	–	114	123
HPLM + 10% dialyzed FBS, 0.569 µM	–	113	108
HPLM + 10% dialyzed FBS, 1.71 µM	–	101	82.6
HPLM + 10% dialyzed FBS, 5.12 µM	–	96.8	130
HPLM + 10% dialyzed FBS, 15.4 µM	–	98.3	102
HPLM + 10% dialyzed FBS, 46.1 µM	–	63.2	86.8
RPMI 5 mM glucose + 10% FBS, 0.000781 µM	109	123	124
RPMI 5 mM glucose + 10% FBS, 0.00234 µM	110	118	122
RPMI 5 mM glucose + 10% FBS, 0.00702 µM	132	115	115
RPMI 5 mM glucose + 10% FBS, 0.0211 µM	111	117	144
RPMI 5 mM glucose + 10% FBS, 0.0632 µM	111	113	127
RPMI 5 mM glucose + 10% FBS, 0.19 µM	116	111	126
RPMI 5 mM glucose + 10% FBS, 0.569 µM	117	112	120
RPMI 5 mM glucose + 10% FBS, 1.71 µM	107	111	88.9
RPMI 5 mM glucose + 10% FBS, 5.12 µM	98.3	103	116
RPMI 5 mM glucose + 10% FBS, 15.4 µM	99.8	91.2	105
RPMI 5 mM glucose + 10% FBS, 46.1 µM	85.1	49.1	72.5
RPMI 5 mM glucose + 10% dialyzed FBS, 0.000781 µM	107	114	125
RPMI 5 mM glucose + 10% dialyzed FBS, 0.00234 µM	120	111	117
RPMI 5 mM glucose + 10% dialyzed FBS, 0.00702 µM	121	115	113
RPMI 5 mM glucose + 10% dialyzed FBS, 0.0211 µM	118	106	125
RPMI 5 mM glucose + 10% dialyzed FBS, 0.0632 µM	113	113	107
RPMI 5 mM glucose + 10% dialyzed FBS, 0.19 µM	119	103	135
RPMI 5 mM glucose + 10% dialyzed FBS, 0.569 µM	111	105	105
RPMI 5 mM glucose + 10% dialyzed FBS, 1.71 µM	108	103	95.6
RPMI 5 mM glucose + 10% dialyzed FBS, 5.12 µM	103	102	114
RPMI 5 mM glucose + 10% dialyzed FBS, 15.4 µM	98.7	95.6	89.5
RPMI 5 mM glucose + 10% dialyzed FBS, 46.1 µM	86.8	58.5	64

AUC of viability dose-response curve
Details	NOMO1 [6]	P12-Ichikawa [5]	SEM cells [4]
HPLM + 10% dialyzed FBS	430	442	423
RPMI 5 mM glucose + 10% FBS	451	447	432
RPMI 5 mM glucose + 10% dialyzed FBS	452	458	441

COc1cc(C(=O)NS(=O)(=O)c2ccccc2C)ccc1Cc1cn(C)c2ccc(NC(=O)OC3CCCC3)cc12
cell viability [%]
Details	NOMO1 [3]	P12-Ichikawa [2]	SEM cells [1]
HPLM + 10% dialyzed FBS, 0.000781 µM	66.5	73.2	59.7
HPLM + 10% dialyzed FBS, 0.00234 µM	66.3	81.6	55.9
HPLM + 10% dialyzed FBS, 0.00702 µM	75.8	85.9	66.9
HPLM + 10% dialyzed FBS, 0.0211 µM	91.5	90.7	73.4
HPLM + 10% dialyzed FBS, 0.0632 µM	79.7	89.8	87.5
HPLM + 10% dialyzed FBS, 0.19 µM	77.8	86.6	90
HPLM + 10% dialyzed FBS, 0.569 µM	87.3	86.5	80.7
HPLM + 10% dialyzed FBS, 1.71 µM	87.3	89.1	70
HPLM + 10% dialyzed FBS, 5.12 µM	87.1	88.8	64.4
HPLM + 10% dialyzed FBS, 15.4 µM	83.8	104	62.6
HPLM + 10% dialyzed FBS, 46.1 µM	31.1	72.3	5.13
RPMI 5 mM glucose + 10% FBS, 0.000781 µM	77.7	82.7	85.4
RPMI 5 mM glucose + 10% FBS, 0.00234 µM	86.9	78.3	83.3
RPMI 5 mM glucose + 10% FBS, 0.00702 µM	79.6	79.2	73.3
RPMI 5 mM glucose + 10% FBS, 0.0211 µM	80.1	88.1	63.4
RPMI 5 mM glucose + 10% FBS, 0.0632 µM	77.6	77.8	92.4
RPMI 5 mM glucose + 10% FBS, 0.19 µM	86.5	83.6	85.2
RPMI 5 mM glucose + 10% FBS, 0.569 µM	82.4	84.4	39.6
RPMI 5 mM glucose + 10% FBS, 1.71 µM	87.6	85	70.5
RPMI 5 mM glucose + 10% FBS, 5.12 µM	85.2	90.1	78.9
RPMI 5 mM glucose + 10% FBS, 15.4 µM	80.4	87	71.3
RPMI 5 mM glucose + 10% FBS, 46.1 µM	18.9	5.73	4.48
RPMI 5 mM glucose + 10% dialyzed FBS, 0.000781 µM	68	76.9	69.7
RPMI 5 mM glucose + 10% dialyzed FBS, 0.00234 µM	84.5	74	54.8
RPMI 5 mM glucose + 10% dialyzed FBS, 0.00702 µM	76.4	76.6	64.2
RPMI 5 mM glucose + 10% dialyzed FBS, 0.0211 µM	92.9	81.6	76.6
RPMI 5 mM glucose + 10% dialyzed FBS, 0.0632 µM	88.8	83.8	77.9
RPMI 5 mM glucose + 10% dialyzed FBS, 0.19 µM	99.7	78.3	83.2
RPMI 5 mM glucose + 10% dialyzed FBS, 0.569 µM	83.5	89.6	62.4
RPMI 5 mM glucose + 10% dialyzed FBS, 1.71 µM	81.6	82.3	76.5
RPMI 5 mM glucose + 10% dialyzed FBS, 5.12 µM	86.1	92.5	63
RPMI 5 mM glucose + 10% dialyzed FBS, 15.4 µM	81.2	87.4	72.5
RPMI 5 mM glucose + 10% dialyzed FBS, 46.1 µM	6.79	44.2	5.4

AUC of viability dose-response curve
Details	NOMO1 [6]	P12-Ichikawa [5]	SEM cells [4]
HPLM + 10% dialyzed FBS	371	411	323
RPMI 5 mM glucose + 10% FBS	378	380	338
RPMI 5 mM glucose + 10% dialyzed FBS	384	383	319
